Results as given in publication PMC3763632, “Radiosynthesis and Radiotracer Properties of a 7-(2-[^18F]Fluoroethoxy)-6-methoxypyrrolidinylquinazoline for Imaging of Phosphodiesterase 10A with PET” (Pharmaceuticals, 2012).
Where “and” joins values, the source holds several entries; their conditions need not be identical. Equal entries are not always repeated.

Tests used:
PDE10A [1] = target: T1, PDE10A (Rattus norvegicus, UniProt Q9QYJ6); experiment: In vitro autoradiography on sagittal rat brain slices; assay type: binding; settings: 25 nM [18F]IV
T1 construct: Frozen sagittal brain sections (12 μm) obtained from female SPRD rats (8–10 weeks); from tissue; host or cells: rat brain sections (female SPRD rats)
T1 sequence (Q9QYJ6 1-794): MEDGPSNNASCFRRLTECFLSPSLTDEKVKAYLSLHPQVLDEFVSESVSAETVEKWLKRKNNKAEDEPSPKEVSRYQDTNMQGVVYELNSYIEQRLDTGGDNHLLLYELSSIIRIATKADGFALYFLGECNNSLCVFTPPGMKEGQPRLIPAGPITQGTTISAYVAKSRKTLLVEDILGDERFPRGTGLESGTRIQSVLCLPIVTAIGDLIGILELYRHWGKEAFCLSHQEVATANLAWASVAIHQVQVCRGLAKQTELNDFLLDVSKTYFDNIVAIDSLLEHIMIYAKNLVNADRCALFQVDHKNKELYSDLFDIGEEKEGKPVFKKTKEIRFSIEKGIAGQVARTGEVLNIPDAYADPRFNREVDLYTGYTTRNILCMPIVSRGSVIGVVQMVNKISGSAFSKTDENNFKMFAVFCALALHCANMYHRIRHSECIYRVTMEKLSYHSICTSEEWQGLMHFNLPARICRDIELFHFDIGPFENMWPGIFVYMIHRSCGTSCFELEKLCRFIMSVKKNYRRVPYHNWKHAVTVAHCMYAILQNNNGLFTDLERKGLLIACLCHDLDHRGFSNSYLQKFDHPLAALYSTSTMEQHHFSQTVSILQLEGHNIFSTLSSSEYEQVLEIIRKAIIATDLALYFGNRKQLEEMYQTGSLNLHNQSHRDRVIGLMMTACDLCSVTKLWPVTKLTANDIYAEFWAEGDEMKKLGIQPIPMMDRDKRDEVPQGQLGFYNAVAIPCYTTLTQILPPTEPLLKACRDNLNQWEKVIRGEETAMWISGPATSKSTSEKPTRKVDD
Excerpt: Figure 3 Representative color-coded autoradiographic images of sagittal rat brain slices. […] CP, caudate putamen; NA, nucleus accumbens; OT, olfactory tubercle; Th, thalamus; Hi, hippocampus; SN, substantia nigra; Cb, cerebellum; Co, cortex; OB, olfactory bulb; PN, pontine nuclei.
This pattern corresponds with the immunohistochemical localization of PDE10A in rat brain described in Seeger et al..
Therefore, species-specific patterns of PDE expression have to be considered in the development of PDE10A targeting PET ligands based on the herein reported quinazoline structures. […]
Frozen sagittal brain sections (12 μm) obtained from female SPRD rats (8–10 weeks) were thawed, dried in a stream of cold air, preincubated for 20 min with 50 mM TRIS-HCl, pH 7.4, at room temperature, and dried again. […] After incubation, sections were washed twice for 2 min with 50 mM TRIS-HCl, pH 7.4 at 4 °C, dipped briefly in ice-cold deionized water (5 s), dried in a stream of cold air, and exposed for 17 h to ^18F-sensitive storage phosphor screens, which were analyzed using the BAS-1800 II system (see above).

PDE10A [2] = target: T2, PDE10A (Homo sapiens, UniProt Q9Y233); experiment: Homologous competitive binding on membrane homogenates of PDE10A-transfected SF21 cells
T2 construct: purchased Biocrea GmbH, Radebeul, Germany; host or cells: SF21 insect cells (PDE10A-transfected; baculovirus system is mentioned)
Procedure: The dissociation constant KD of [^18F]IV was determined in homologous competitive binding experiments by nonlinear regression analysis. Cell membrane homogenates from PDE10A-transfected SF21 cells (100 µg protein/mL incubation volume) were incubated with solutions of six concentrations of IV (working concentration 10 pM–[…]), each spiked with a fixed concentration of [^18F]IV (working concentration 0.05–0.1 nM).
Crude membrane homogenates isolated from PDE10A-transfected SF21 cells were obtained from Biocrea GmbH, Radebeul, Germany. For competitive radioligand displacement experiments (n = 2), the membrane preparations were diluted with incubation buffer (50 mM Tris-HCl, pH 7.4 at room temperature, 5 mM MgCl2) and re-homogenized by passing through a 27-gauge needle. The protein (100 µg) was incubated with 0.05–0.1 nM of [^18F]IV and different concentrations of IV (10 pM–1 µM), diluted from a 10 mM stock in DMSO, at a final volume of 1 mL. Nonspecific binding was determined in the presence of 10 µM of I, and control incubation was carried out accordingly using crude membrane preparations obtained from non-transfected SF21 cells.
Incubation at room temperature was terminated after 120 min by rapid filtration (Brandel 48-channel harvester; Biomedical Research and Development Lab. Inc., Gaithersburg, MD, USA) on Whatman GF/B glass-fiber filters, pre-soaked for 90 min in 0.3% polyethylenimine (Sigma, Deisenhofen, Germany), followed by washing four times with 4 mL of ice-cold wash buffer (50 mM Tris-HCl, pH 7.4 at 4 °C). Filter-bound radioactivity was quantified using a calibrated γ-counter (Wallac WIZARD, Perkin Elmer, Waltham, MA, USA).
Each experiment was carried out in triplicate. The binding parameter IC50 was estimated using iterative non-linear curve fitting. KD of [^18F]IV was estimated directly from homologous competition curve with KD = IC50-[radioligand] as well as from the respective saturation isotherm by nonlinear regression analysis.

T2 sequence (Q9Y233 whole entry, species assumed): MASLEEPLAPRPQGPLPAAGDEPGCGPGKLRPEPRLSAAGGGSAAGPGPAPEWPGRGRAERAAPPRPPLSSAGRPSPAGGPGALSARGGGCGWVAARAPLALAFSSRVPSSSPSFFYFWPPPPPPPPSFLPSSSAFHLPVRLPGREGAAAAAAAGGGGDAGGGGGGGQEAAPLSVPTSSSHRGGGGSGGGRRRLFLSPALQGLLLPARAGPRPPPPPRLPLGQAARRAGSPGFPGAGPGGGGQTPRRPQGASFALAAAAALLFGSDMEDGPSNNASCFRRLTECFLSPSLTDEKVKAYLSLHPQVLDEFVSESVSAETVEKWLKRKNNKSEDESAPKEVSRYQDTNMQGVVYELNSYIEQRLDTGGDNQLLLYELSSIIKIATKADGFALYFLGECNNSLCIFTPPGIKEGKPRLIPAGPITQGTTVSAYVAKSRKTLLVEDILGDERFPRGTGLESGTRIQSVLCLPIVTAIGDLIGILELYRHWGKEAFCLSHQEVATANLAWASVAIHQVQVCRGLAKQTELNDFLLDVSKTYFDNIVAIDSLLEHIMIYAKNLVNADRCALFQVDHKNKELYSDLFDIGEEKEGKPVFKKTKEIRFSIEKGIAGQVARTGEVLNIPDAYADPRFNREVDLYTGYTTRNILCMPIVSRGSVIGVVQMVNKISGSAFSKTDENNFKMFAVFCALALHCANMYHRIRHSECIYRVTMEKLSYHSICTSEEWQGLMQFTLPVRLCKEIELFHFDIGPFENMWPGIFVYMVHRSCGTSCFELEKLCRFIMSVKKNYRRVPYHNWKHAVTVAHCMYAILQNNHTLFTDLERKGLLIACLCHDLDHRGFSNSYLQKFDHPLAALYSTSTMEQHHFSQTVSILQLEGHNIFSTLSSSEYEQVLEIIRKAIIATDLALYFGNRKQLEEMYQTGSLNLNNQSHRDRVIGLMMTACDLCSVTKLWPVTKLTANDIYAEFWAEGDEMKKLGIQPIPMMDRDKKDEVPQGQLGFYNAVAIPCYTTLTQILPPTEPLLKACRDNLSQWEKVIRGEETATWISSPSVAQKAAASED

COc1cc2c(N3CC[C@@H](Oc4cnc5ccccc5n4)C3)ncnc2cc1OCC[18F] [[^18F]IV, (R)-7-(2-[^18F]Fluoroethoxy)-6-methoxy-4-(3-(quinoxalin-2-yloxy)pyrrolidin-1-yl)quinazoline]
binding of [18F]IV on rat brain slices, co-incubation with IV (PDE10A [1]; 10 μM IV, 60 min): saturable binding | inhibition of [18F]IV binding on rat brain slices by MP-10 (PDE10A [1]; 10 μM MP-10, 60 min): not completely inhibited | Kd (PDE10A [2]; mean, n = 2, calculated from homologous competition): 14 nM and ~14 nM | Kd (PDE10A [2]; single experiments (n = 2)): 15.9 nM and 11.6 nM
